We go through 2 compounds from patent US20170182077A1, “METHODS AND PHARMACEUTICAL COMPOSITIONS FOR THE TREATMENT OF ACUTE EXACERBATIONS OF CHRONIC OBSTRUCTIVE PULMONARY DISEASE” (INSERM (INSTITUT NATIONAL DE LA SANTÉ ET DE LA RECHERCHE …, priority 2014, published 2017).

In experiment [1] the test system is lung cells (NKT cells) from Air and COPD mice. In words: Cytokine production by total lung cells stimulated with alpha-GalactosylCeramide (ELISA). The note with it: αGC 100 ng/ml, 48 hrs; for production of IL-22: after Sp challenge vs non infected, ELISA of supernatants. The experiment is classed as cell-based, C57B1/6 mice. The method, then:
FIG. 3—Lung cells from Air and COPD mice were treated with αGC (100 ng/ml) or not (Ctl, non stimulated) for 48 hrs. The concentrations of IL-22, IL-17, IFN-γ and IL-4 were analyzed by ELISA in the supernatants. Values represented the mean±SEM.
C57B1/6 mice were exposed to CS generated from 5 cigarettes per day, 5 days a week, over a period of 12 weeks using a smoking machine (Emka, Scireq, Canada).
Mice were inoculated with a clinical isolate of S. pneumoniae serotype 1 (Sp) (5×10^4 cfu). Bacteria stocks were kept frozen at −80° C. Bacteria were thawn just before infection, and the number of cfu was checked on chocolate plates. Infection was performed by intranasal route (50 μl/mouse).
Cytokine production was analyzed in total lung cells. For this, 5×10^5 lung cells were seeded on 96-well plates and then stimulated with alpha-GalactosylCeramide, or α-GC (100 ng/ml), and coated anti-CD3 Ab. Forty-eight hours later, supernatants were collected and analyzed for IFN-γ, IL-4, IL-17 and IL-22 concentration by ELISA (R&D Systems).

Experiment [2] concerns peripheral blood mononuclear cells (PBMC). In words: Th17 cytokine secretion by peripheral blood mononuclear cells exposed to S. pneumoniae or PHA. The experiment is classed as cell-based, human. The note with it: PHA 1 μg/ml, supernatants after 24 h. On the procedure: Peripheral blood and induced or spontaneous sputum were collected in stable COPD patients (n=10), in smokers (without COPD, n=13)) and in non smoker healthy controls (n=14) (CPP 2008-A00690-55) in order to evaluate ex vivo the Th17 response to infection with S. pneumoniae. Peripheral blood mononuclear cells (PBMC) were purified on Ficoll Paque gradient and 3×10^6 cells/ml in complete RPMI1640 were exposed to S. pneumoniae (MOI=2) or to a positive control, phytohemagglutinin (1 μg/ml) (PHA, Difco). After 90 min, antibiotics were added to stop bacteria growth and supernatants were collected after 24 h incubation. In parallel, another batch of cells was incubated with brefeldin-A (10 μg/ml, Sigma) for 4 h before collection and was used for intracellular immuno-staining of cytokines in lymphocytes.

The mark [3] stands for this setting: pulmonary cells from Air and COPD mice, after Sp infection, ELISA.

With `CCCCCCCCCCCCCCCCCCCCCCCCCC(=O)N[C@@H](CO[C@H]1O[C@H](CO)[C@H](O)[C@H](O)[C@H]1O)[C@H](O)[C@H](O)CCCCCCCCCCCCCC` [alpha-GalactosylCeramide], in experiment [1] (pulmonary cells from Air and COPD mice, after Sp challenge, ELISA), the IL-17 production result is reported as “failed to increase IL-17 production”. In addition, the “levels of IFN-y” value in experiment [1] (setting [3]) is “higher levels”. For the same compound, in experiment [1] (setting [3]), the “levels of IL-4” value was “higher levels”. In addition, the figures for the “production of IL-22” value in experiment [1] (pulmonary cells from Air mice) and in experiment [1] (pulmonary cells from COPD mice) were “higher production of IL-22” and “absent”, respectively.
Consider phytohemagglutinin [PHA], for which the “response (secretion, mainly IL-17 and IL-22)” value in experiment [2] (PBMC of COPD patients) was “partially altered”. The “levels of IL-17 and IL-22” value in experiment [2] (PBMC of non-smokers and smokers) was “significantly increased”.
